From patent US20250206745A1, “PYRROLOPYRIDAZINE DERIVATIVES AND RELATED USES” (NodThera Limited, priority 2023, published 2025)
Structures can show the parent of a compound that is named as a salt.

Tests used:
[1] = test system: IL-1β release upon NLRP3 activation in peripheral blood mononuclear cells (PBMC); test: PBMC IC50 Determination Assay; format: cell-based; details: Homo sapiens; inhibition of IL-1β release; PBMC primed with LPS, stimulated with ATP or nigericin; ELISA or HTRF
Procedure: The compounds of the present disclosure were tested for their inhibitory activity against IL-1β release upon NLRP3 activation in peripheral blood mononuclear cells (PBMC).
Protocol A. PBMC were isolated from buffy coats by density gradient centrifugation on Histopaque-1077 (Sigma, cat no. 10771). Isolated cells were seeded into the wells of a 96-well plate and incubated for 3 h with lipopolysaccharide (LPS). Following medium exchange, the compounds of the present disclosure were added (a single compound per well) and the cells were incubated for 30 min. Next, the cells were stimulated either with ATP (5 mM) or nigericin (10 μM) for 1 h and the cell culture media from the wells were collected for further analysis.
The release of IL-1β into the media was determined by a quantitative detection of IL-1β in the media using an IL-1β enzyme-linked immunosorbent assay (ELISA) Ready-SET-Go!, eBioscience cat. No. 88-7261-88. Briefly, in a first step, high affinity binding plates (Corning, Costar 9018 or NUNC Maxisorp Cat No. 44-2404) were coated overnight at 4° C. with specific capture antibody included in the kit (anti-human IL-1β ref. 14-7018-68). Subsequently, plates were blocked with blocking buffer for 1 h at room temperature (rt) and after washing with a buffer (PBS with 0.05% Tween-20) incubated with protein standard and culture media. After 2 h of incubation at rt, plates were washed and incubated with biotinylated detection antibody included in the kit (anti-human IL-1β Biotin ref. 33-7110-68) for 1 h at rt. Plates were washed and incubated with HRP-streptavidin for 30 min at rt and washed again. The signal was developed after addition of 3,3′,5,5′-tetramethylbenzidine-peroxidase (TMB) until colour appeared and the reaction was stopped by 2 M H2SO4. A microplate spectrophotometer (BioTek) was used to detect signals with 450 nm. The detection range of IL-1β ELISA was […].
Protocol B. PBMC were isolated from buffy coats by density gradient centrifugation on Histopaque-1077 (Sigma, cat no. 10771). Isolated cells were seeded into the wells (280,000 cells/well) of a 96-well plate and incubated for 3 h with lipopolysaccharide (LPS, 1 μg/mL diluted 1000× from a 1 mg/mL stock solution). The compounds of the present disclosure were added (a single compound per well) and the cells were incubated for 30 min. Next, the cells were stimulated with ATP (5 mM final concentration diluted 20× from a 100 mM stock solution) for 1 h and the cell culture media from the wells were collected for further analysis.
The release of IL-1β into the media was determined by quantitative detection of IL-1β in the media using HTRF®, CisBio cat. No. 62HIL1BPEH. Briefly, cell culture supernatant were dispensed directly into the assay plate containing antibodies labelled with the HTRF® donor and acceptor. A microplate spectrophotometer (BMG) was used to detect signals at 655 nm and 620 nm. The detection range of IL-1β HTRF® was 39-6500 pg/mL.

[2] = test system: IL-1β release upon NLRP3 activation in phorbol 12-myristate 13-acetate (PMA)-differentiated THP-1 cells; test: THP-1 IC50 Determination Assay; format: cell-based; details: Homo sapiens, inhibition of IL-1β release, LPS, nigericin, ELISA
Procedure: The compounds of the present disclosure were tested for their inhibitory activity against IL-1β release upon NLRP3 activation in phorbol 12-myristate 13-acetate (PMA)-differentiated THP-1 cells.
THP-1 cells stored in liquid nitrogen were thawed in a 37° C. water bath. The cells were added into complete RPMI 1640 medium (FBS (56 mL), 100× Penicillin-Streptomycin (5.6 mL) and 0.05 mM 2-Mercaptoethanol in RPMI 1640 Medium (500 mL)) and centrifuged for 5 min at 1000 rpm. The supernatant was discarded and the cells resuspended into new cell culture medium for culturing. Cells were cultured in cell culture medium and passaged every 3-4 days to maintain cell density between 4×10^5 and 1.5×10^6 cells/mL. The cells were diluted to 0.8×10^6 cells/mL and grown in a T150 flask with PMA (final concentration 5 ng/mL). The flask was incubated in a 37° C. incubator with a humidified atmosphere of 5% CO2 for −40 hours. After −40 hours of PMA differentiation, the flask was washed with DPBS. Cells were digested with Trypsin LE for about 5 min at room temperature, and digestion was terminated using complete RPMI 1640 medium. Cells were centrifuged and resuspended (1000 rpm, 3 min). The supernatant was discarded and cells washed with DPBS, centrifuged and resuspended cells (1000 rpm, 5 min). Cells were plated at 30,000 cells/well in a 384-well PP plate and treated with 25 ng/mL LPS solution diluted in serum-free medium (45 μL). The plate was incubated in a 37° C. incubator with a humidified atmosphere of 5% CO2 for 2 hours. Compounds (from 10 mM DMSO solution) were dispensed and serially diluted by 1:3 eight times, with final 0.5% DMSO concentration. NLRP3 inflammasome was activated with nigericin (5 μL), the plate was centrifuged (1000 rpm, 30 s) and incubated in a 37° C. incubator with a humidified atmosphere of […] for 2 hours. 35 μL/well of supernatant was removed and IL-1β levels determined by ELISA assay (Mabtech 3416-1H-20) according to the manufacturer's instructions.

Row | SMILES | IC50 [1] | IC50 [2]
1 | Cc1cc(Cl)cc(O)c1-c1cc2ccn(CC3CCN(CC(F)F)CC3)c2nn1 [Compound 10, 5-Chloro-2-(7-{[1-(2,2-difluoroethyl)piperidin-4-yl]methyl}-7H-pyrrolo[2,3-c]pyridazin-3-yl)-3-methylphenol hydrochloride] | 100 to 300 nM | 100 to 300 nM
2 | Cc1cc(Cl)cc(O)c1-c1cc2ccn(CC3CCN(C)C(=O)C3)c2nn1 (stereo not shown) [Compound 11, 4-{[3-(4-Chloro-2-hydroxy-6-methylphenyl)-7H-pyrrolo[2,3-c]pyridazin-7-yl]methyl}-1-methylpiperidin-2-one] | 100 to 300 nM | 100 to 300 nM
3 | Cc1cc(Cl)cc(O)c1-c1cc2ccn(CCN3CCOCC3)c2nn1 [Compound 12, 5-Chloro-3-methyl-2-{7-[2-(morpholin-4-yl)ethyl]-7H-pyrrolo[2,3-c]pyridazin-3-yl}phenol hydrochloride] | 300 to 1000 nM | 100 to 300 nM
4 | Cc1cc(Cl)cc(O)c1-c1cc2ccn(CCN3CCN(C)CC3)c2nn1 [Compound 13, 5-Chloro-3-methyl-2-{7-[2-(4-methylpiperazin-1-yl)ethyl]-7H-pyrrolo[2,3-c]pyridazin-3-yl}phenol dihydrochloride] | 300 to 1000 nM | 300 to 1000 nM
5 | Cc1cc(Cl)cc(O)c1-c1cc2ccn(CC3CCCCN3C)c2nn1 (stereo not shown) [Compound 14, 5-Chloro-3-methyl-2-{7-[(1-methylpiperidin-2-yl)methyl]-7H-pyrrolo[2,3-c]pyridazin-3-yl}phenol] | 100 to 300 nM | 100 to 300 nM
6 | Cc1cc(Cl)cc(O)c1-c1cc2ccn(CC3CCN(C4COC4)CC3)c2nn1 [Compound 15, 5-Chloro-3-methyl-2-(7-{[1-(oxetan-3-yl)piperidin-4-yl]methyl}-7H-pyrrolo[2,3-c]pyridazin-3-yl)phenol] | 100 to 300 nM | 100 to 300 nM
7 | Cc1cc(Cl)cc(O)c1-c1cc2ccn(CC3CCOC3)c2nn1 (stereo not shown) [Compound 16, 5-Chloro-3-methyl-2-{7-[(oxolan-3-yl)methyl]-7H-pyrrolo[2,3-c]pyridazin-3-yl}phenol] | 100 to 300 nM | 100 to 300 nM
8 | COC(=O)N1CCC(Cn2ccc3cc(-c4c(C)cc(Cl)cc4O)nnc32)CC1 [Compound 17, Methyl 4-{[3-(4-chloro-2-hydroxy-6-methylphenyl)-7H-pyrrolo[2,3-c]pyridazin-7-yl]methyl}piperidine-1-carboxylate] | 100 to 300 nM | 100 to 300 nM
9 | COCCN1CCC(Cn2ccc3cc(-c4c(C)cc(Cl)cc4O)nnc32)CC1 [Compound 18, 5-Chloro-2-(7-{[1-(2-methoxyethyl)piperidin-4-yl]methyl}-7H-pyrrolo[2,3-c]pyridazin-3-yl)-3-methylphenol] | 100 to 300 nM | 100 to 300 nM
10 | CNC(=O)Cn1ccc2cc(-c3c(C)cc(Cl)cc3O)nnc21 [Compound 19, 2-[3-(4-Chloro-2-hydroxy-6-methylphenyl)-7H-pyrrolo[2,3-c]pyridazin-7-yl]-N-methylacetamide] | 300 to 1000 nM | 300 to 1000 nM
11 | CNC(=O)CCn1ccc2cc(-c3c(C)cc(Cl)cc3O)nnc21 [Compound 20, 3-[3-(4-Chloro-2-hydroxy-6-methylphenyl)-7H-pyrrolo[2,3-c]pyridazin-7-yl]-N-methylpropanamide] | 300 to 1000 nM | 300 to 1000 nM
12 | COCCn1ccc2cc(-c3c(C)cc(Cl)cc3O)nnc21 [Compound 21, 5-Chloro-2-[7-(2-methoxyethyl)-7H-pyrrolo[2,3-c]pyridazin-3-yl]-3-methylphenol] | 100 to 300 nM | 300 to 1000 nM
13 | Cc1cc(Cl)cc(O)c1-c1cc2ccn(CCN(C)C)c2nn1 [Compound 22, 5-Chloro-2-{7-[2-(dimethylamino)ethyl]-7H-pyrrolo[2,3-c]pyridazin-3-yl}-3-methylphenol hydrochloride] | 300 to 1000 nM | 300 to 1000 nM
14 | COCCCn1ccc2cc(-c3c(C)cc(Cl)cc3O)nnc21 [Compound 23, 5-Chloro-2-[7-(3-methoxypropyl)-7H-pyrrolo[2,3-c]pyridazin-3-yl]-3-methylphenol] | 300 to 1000 nM | 300 to 1000 nM
15 | Cc1cc(Cl)cc(O)c1-c1cc2ccn(CC3CCCCO3)c2nn1 (stereo not shown) [Compound 25, 5-Chloro-3-methyl-2-{7-[(oxan-2-yl)methyl]-7H-pyrrolo[2,3-c]pyridazin-3-yl}phenol] | 100 to 300 nM | 100 to 300 nM
16 | Cc1cc(Cl)cc(O)c1-c1cc2ccn(CC3CCN(CC#N)CC3)c2nn1 [Compound 26, 2-(4-{[3-(4-Chloro-2-hydroxy-6-methylphenyl)-7H-pyrrolo[2,3-c]pyridazin-7-yl]methyl}piperidin-1-yl)acetonitrile] | 300 to 1000 nM | 300 to 1000 nM
17 | Cc1cc(Cl)cc(O)c1-c1cc2ccn(CC3(F)CCN(C)CC3)c2nn1 [Compound 27, 5-Chloro-2-{7-[(4-fluoro-1-methylpiperidin-4-yl)methyl]-7H-pyrrolo[2,3-c]pyridazin-3-yl}-3-methylphenol hydrochloride] | 30 to 100 nM | 100 to 300 nM
18 | Cc1cc(Cl)cc(O)c1-c1cc2ccn(CC3CN(C)C3)c2nn1 [Compound 28, 5-Chloro-3-methyl-2-{7-[(1-methylazetidin-3-yl)methyl]-7H-pyrrolo[2,3-c]pyridazin-3-yl}phenol hydrochloride] | 300 to 1000 nM | 300 to 1000 nM
19 | Cc1cc(Cl)cc(O)c1-c1cc2ccn(CCCN(C)C)c2nn1 [Compound 29, 5-Chloro-2-{7-[3-(dimethylamino)propyl]-7H-pyrrolo[2,3-c]pyridazin-3-yl}-3-methylphenol hydrochloride] | 1000 to 3000 nM | 1000 to 3000 nM
20 | Cc1cc(Cl)cc(O)c1-c1cc2ccn(CC(=O)N3CCCC3)c2nn1 [Compound 30, 2-[3-(4-Chloro-2-hydroxy-6-methylphenyl)-7H-pyrrolo[2,3-c]pyridazin-7-yl]-1-(pyrrolidin-1-yl)ethan-1-one] | 300 to 1000 nM | 300 to 1000 nM
21 | Cc1cc(Cl)cc(O)c1-c1cc2ccn(CC3CCN(S(C)(=O)=O)CC3)c2nn1 [Compound 31, 5-Chloro-2-{7-[(1-methanesulfonylpiperidin-4-yl)methyl]-7H-pyrrolo[2,3-c]pyridazin-3-yl}-3-methylphenol] | 100 to 300 nM | 100 to 300 nM
22 | Cc1cc(Cl)cc(O)c1-c1cc2ccn(CC(=O)N(C)C)c2nn1 [Compound 32, 2-[3-(4-Chloro-2-hydroxy-6-methylphenyl)-7H-pyrrolo[2,3-c]pyridazin-7-yl]-N,N-dimethylacetamide] | 100 to 300 nM | 100 to 300 nM
23 | Cc1cc(Cl)cc(O)c1-c1cc2ccn(CCN3CCCC(F)C3)c2nn1 (stereo not shown) [Compound 33, 5-Chloro-2-{7-[2-(3-fluoropiperidin-1-yl)ethyl]-7H-pyrrolo[2,3-c]pyridazin-3-yl}-3-methylphenol hydrochloride] | 30 to 100 nM | 300 to 1000 nM
